target: T1, PRMT5/MEP50 (Homo sapiens, UniProt O14744); assay: PRMT5 Biochemical Assay (PRMT5/MEP50 enzyme assay on peptide substrate, 3H-SAM Flashplate); details: PRMT5/MEP50 4 nM, 3H-SAM 75 nM, peptide 40 nM, 30 min preincubation at 25 degrees Celsius
T1 construct: Flag-PRMT5; made in house; host or cells: Spodoptera frugiperda (SF9) insect cells, baculovirus (pDEST8)
Procedure, shortened: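 FLAG-PRMT5/His-MEP50 from Sf9 cells (4 nM) preincubated 30 min at 25 °C with compounds, then reacted with 75 nM 3H-SAM and 40 nM biotinylated histone H4 1-15 peptide in Bicine pH 7.6, 1% DMSO. Stopped with 600 uM cold SAM; streptavidin Flashplate capture, scintillation counts; % inhibition fitted to 3- or 4-parameter curve.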

T1 sequence (O14744 with tags, fused parts or gaps): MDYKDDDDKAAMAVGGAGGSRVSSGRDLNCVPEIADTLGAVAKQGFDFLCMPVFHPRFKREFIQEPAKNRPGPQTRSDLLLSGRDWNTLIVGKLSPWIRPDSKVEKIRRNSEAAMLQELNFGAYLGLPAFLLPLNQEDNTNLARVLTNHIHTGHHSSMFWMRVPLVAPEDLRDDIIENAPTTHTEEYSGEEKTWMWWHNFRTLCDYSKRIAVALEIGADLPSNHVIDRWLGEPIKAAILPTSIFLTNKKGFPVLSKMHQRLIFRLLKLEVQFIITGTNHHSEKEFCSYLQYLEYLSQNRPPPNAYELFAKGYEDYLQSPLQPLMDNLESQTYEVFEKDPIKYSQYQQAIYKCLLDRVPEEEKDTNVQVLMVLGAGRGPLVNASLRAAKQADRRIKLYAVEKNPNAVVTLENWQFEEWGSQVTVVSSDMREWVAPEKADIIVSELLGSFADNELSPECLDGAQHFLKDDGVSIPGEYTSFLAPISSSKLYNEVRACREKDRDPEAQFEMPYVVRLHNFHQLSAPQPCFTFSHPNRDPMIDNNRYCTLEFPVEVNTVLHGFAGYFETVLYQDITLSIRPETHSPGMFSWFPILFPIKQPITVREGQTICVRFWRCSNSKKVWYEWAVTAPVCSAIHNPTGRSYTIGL
T1 sequence (Q9BQA1 with tags, fused parts or gaps partner limits assumed): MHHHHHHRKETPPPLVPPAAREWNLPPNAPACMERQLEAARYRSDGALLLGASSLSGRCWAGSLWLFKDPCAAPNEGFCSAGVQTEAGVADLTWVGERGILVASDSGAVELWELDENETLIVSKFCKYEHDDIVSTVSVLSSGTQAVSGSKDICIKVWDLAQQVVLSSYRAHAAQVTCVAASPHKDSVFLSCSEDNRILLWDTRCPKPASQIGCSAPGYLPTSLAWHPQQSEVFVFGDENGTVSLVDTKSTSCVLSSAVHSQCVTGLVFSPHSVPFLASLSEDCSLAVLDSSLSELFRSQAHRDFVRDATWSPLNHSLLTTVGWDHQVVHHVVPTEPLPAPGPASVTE

IC50 | SMILES
> 10 µM | CC(=O)N1CCC(Nc2cc(C(=O)NC[C@H](O)CN3CCc4[nH]cnc4C3)ccn2)CC1 [Compound 3-36, (S)-2-((1-acetylpiperidin-4-yl)amino)-N-(3-(6,7-dihydro-1H-imidazo[4,5-c]pyridin-5(4H)-yl)-2-hydroxypropyl)isonicotinamide]
> 10 µM | Cn1cc2c(n1)CCN(C[C@@H](O)CNC(=O)c1cc(NC3COC3)ncn1)C2 [Compound 3-27]
> 10 µM | CC(=O)N1CCC(Nc2cc(C(=O)NC[C@H](O)CN3CCc4nc(C)[nH]c4C3)ccn2)CC1 [Compound 3-54]
> 10 µM | CC(=O)N1CC(Nc2cc(C(=O)NC[C@H](O)CN3CCc4[nH]cnc4C3)ncn2)C1 [Compound 3-33, (S)-6-((1-acetylazetidin-3-yl)amino)-N-(3-(6,7-dihydro-1H-imidazo[4,5-c]pyridin-5(4H)-yl)-2-hydroxypropyl)pyrimidine-4-carboxamide]
0.101 to 1 µM | CC(=O)N1CCC(Nc2cc(C(=O)NC[C@H](O)CN3CCc4cnccc4C3)ncn2)CC1 [Compound 2-17, (S)-6-((1-acetylpiperidin-4-yl)amino)-N-(3-(3,4-dihydro-2,6-naphthyridin-2(1H)-yl)-2-hydroxypropyl)pyrimidine-4-carboxamide]
> 10 µM | Cn1ncc2c1CCCN2C[C@@H](O)CNC(=O)c1cc(NC2COC2)ncn1 [Compound 3-40]
0.101 to 1 µM | CC(=O)N1CCC(Nc2cc(C(=O)NC[C@H](O)CN3CCc4cccnc4C3)ccn2)CC1 [Compound 2-21, (S)-2-((1-acetylpiperidin-4-yl)amino)-N-(3-(5,6-dihydro-1,7-naphthyridin-7(8H)-yl)-2-hydroxypropyl)isonicotinamide]
> 10 µM | Cn1cnc2c1CCN(C[C@@H](O)CNC(=O)c1cc(NC3COC3)ncn1)C2 [Compound 3-28]
0.101 to 1 µM | O=C(NC[C@H](O)CN1CCc2ncccc2C1)c1cc(NC2COC2)ncn1 [Compound 2-12, (S)—N-(3-(7,8-dihydro-1,6-naphthyridin-6(5H)-yl)-2-hydroxypropyl)-6-(oxetan-3-ylamino)pyrimidine-4-carboxamide]
0.101 to 1 µM | CC(=O)N1CC(Nc2cc(C(=O)NC[C@H](O)CN3CCc4ncccc4C3)ncn2)C1 [Compound 2-9, (S)-6-((1-acetylazetidin-3-yl)amino)-N-(3-(7,8-dihydro-1,6-naphthyridin-6(5H)-yl)-2-hydroxypropyl)pyrimidine-4-carboxamide]
0.101 to 1 µM | CC(=O)N1CC(Nc2cc(C(=O)NC[C@H](O)CN3CCc4cccnc4C3)ncn2)C1 [Compound 2-13]
> 10 µM | CC(=O)N1CCC(Nc2cc(C(=O)NC[C@H](O)CN3CCc4cn[nH]c4C3)ncn2)CC1 [Compound 3-51]
> 10 µM | CC(=O)N1CCC(Nc2cc(C(=O)NC[C@H](O)CN3CCc4[nH]cnc4C3)ncn2)CC1 [Compound 3-34, (S)-6-((1-acetylpiperidin-4-yl)amino)-N-(3-(6,7-dihydro-1H-imidazo[4,5-c]pyridin-5(4H)-yl)-2-hydroxypropyl)pyrimidine-4-carboxamide]
1 to 10 µM | O=C(NC[C@H](O)CN1CCc2ccncc2C1)c1cc(NC2COC2)ncn1 [Compound 2-24]
0.101 to 1 µM | CC(=O)N1CCC(Nc2cc(C(=O)NC[C@H](O)CN3CCc4cnccc4C3)ccn2)CC1 [Compound 2-18]
> 10 µM | Cc1nc2c(o1)CCN(C[C@@H](O)CNC(=O)c1cc(NC3COC3)ncn1)C2 [Compound 4-1, (S)—N-(2-hydroxy-3-(2-methyl-6,7-dihydrooxazolo[4,5-c]pyridin-5(4H)-yl)propyl)-6-(oxetan-3-ylamino)pyrimidine-4-carboxamide]
> 10 µM | CC(=O)N1CCC(Nc2cc(C(=O)NC[C@H](O)CN3CCc4oc(C)nc4C3)ccn2)CC1 [Compound 4-4, (S)-2-((1-acetylpiperidin-4-yl)amino)-N-(2-hydroxy-3-(2-methyl-6,7-dihydrooxazolo[4,5-c]pyridin-5(4H)-yl)propyl)isonicotinamide]
> 10 µM | CC(=O)N1CCC(Nc2cc(C(=O)NC[C@H](O)CN3CCc4c(ncn4C)C3)ccn2)CC1 [Compound 3-22, (S)-2-((1-acetylpiperidin-4-yl)amino)-N-(2-hydroxy-3-(1-methyl-6,7-dihydro-1H-imidazo[4,5-c]pyridin-5(4H)-yl)propyl)isonicotinamide]
> 10 µM | CC(=O)N1CC(Nc2cc(C(=O)NC[C@H](O)CN3CCc4oc(C)nc4C3)ncn2)C1 [Compound 4-2, (S)-6-((1-acetylazetidin-3-yl)amino)-N-(2-hydroxy-3-(2-methyl-6,7-dihydrooxazolo[4,5-c]pyridin-5(4H)-yl)propyl)pyrimidine-4-carboxamide]
> 10 µM | O=C(COc1cccc2cccnc12)NCC(O)CN1CCc2nc[nH]c2C1 (centres unmarked) [Compound 3-10, N-(2-hydroxy-3-{3H,4H,5H,6H,7H-imidazo[4,5-c]pyridin-5-yl}propyl)-2-(quinolin-8-yloxy)acetamide]
0.101 to 1 µM | CC(=O)N1CCC(Nc2cc(C(=O)NC[C@H](O)CN3CCc4cccnc4C3)ncn2)CC1 [Compound 2-11, (S)-6-((1-acetylpiperidin-4-yl)amino)-N-(3-(5,6-dihydro-1,7-naphthyridin-7(8H)-yl)-2-hydroxypropyl)pyrimidine-4-carboxamide]
> 10 µM | Cn1cnc2c1CN(C[C@@H](O)CNC(=O)c1cc(NC3COC3)ncn1)CC2 [Compound 3-26, (S)—N-(2-hydroxy-3-(3-methyl-6,7-dihydro-3H-imidazo[4,5-c]pyridin-5(4H)-yl)propyl)-6-(oxetan-3-ylamino)pyrimidine-4-carboxamide]
> 10 µM | CC(=O)N1CCC(Nc2cc(C(=O)NC[C@H](O)CN3CCc4c(ncn4C)C3)ncn2)CC1 [Compound 3-35, (S)-6-((1-acetylpiperidin-4-yl)amino)-N-(2-hydroxy-3-(1-methyl-6,7-dihydro-1H-imidazo[4,5-c]pyridin-5(4H)-yl)propyl)pyrimidine-4-carboxamide]

The next lines start with the compound.

SMILES | IC50
O=C(NC[C@H](O)CN1CCc2ncsc2C1)c1cc(NC2COC2)ncn1 [Compound 1-16, (S)—N-(3-(6,7-dihydrothiazolo[5,4-c]pyridin-5(4H)-yl)-2-hydroxypropyl)-6-(oxetan-3-ylamino)pyrimidine-4-carboxamide] | > 10 µM
CC(=O)N1CCC(Nc2cc(C(=O)NC[C@H](O)CN3CCc4scc(C)c4C3)ncn2)CC1 [Compound 1-13, (S)-6-((1-acetylpiperidin-4-yl)amino)-N-(2-hydroxy-3-(3-methyl-6,7-dihydrothieno[3,2-c]pyridin-5(4H)-yl)propyl)pyrimidine-4-carboxamide] | < 0.1 µM
CC(=O)N1CC(Nc2cc(C(=O)NC[C@H](O)CN3CCc4nc(N)sc4C3)ncn2)C1 [Compound 1-29] | 1 to 10 µM
O=C(NC[C@H](O)CN1CCc2sccc2C1)c1cc(NC2COC2)ncn1 [Compound 1-1, (S)—N-(3-(6,7-dihydrothieno[3,2-c]pyridin-5(4H)-yl)-2-hydroxypropyl)-6-(oxetan-3-ylamino)pyrimidine-4-carboxamide] | < 0.1 µM
CC(=O)N1CCC(Nc2cc(C(=O)NC[C@H](O)CN3CCc4nc(N)sc4C3)ccn2)CC1 [Compound 1-35] | 0.101 to 1 µM
CC(=O)N1CCC(Nc2cc(C(=O)NC[C@H](O)CN3CCc4nc(C)sc4C3)ncn2)CC1 [Compound 1-7, (S)-6-((1-acetylpiperidin-4-yl)amino)-N-(2-hydroxy-3-(2-methyl-6,7-dihydrothiazolo[5,4-c]pyridin-5(4H)-yl)propyl)pyrimidine-4-carboxamide] | 1 to 10 µM
CC(=O)N1CC(Nc2cc(C(=O)NC[C@H](O)CN3CCc4ncsc4C3)ncn2)C1 [Compound 1-17, (S)-6-((1-acetylazetidin-3-yl)amino)-N-(3-(6,7-dihydrothiazolo[5,4-c]pyridin-5(4H)-yl)-2-hydroxypropyl)pyrimidine-4-carboxamide] | > 10 µM
Nc1nc2c(s1)CCN(C[C@@H](O)CNC(=O)c1cc(NC3COC3)ncn1)C2 [Compound 1-20, (S)—N-(3-(2-amino-6,7-dihydrothiazolo[4,5-c]pyridin-5(4H)-yl)-2-hydroxypropyl)-6-(oxetan-3-ylamino)pyrimidine-4-carboxamide] | > 10 µM
CC(=O)N1CCC(Nc2cc(C(=O)NC[C@H](O)CN3CCc4scnc4C3)ncn2)CC1 [Compound 1-32] | 1 to 10 µM
O=C(COc1cccc2cccnc12)NCC(O)CN1CCc2sccc2C1 (centres unmarked) [Compound 1-4, N-(2-hydroxy-3-{4H,5H,6H,7H-thieno[3,2-c]pyridin-5-yl}propyl)-2-(quinolin-8-yloxy)acetamide] | < 0.1 µM
CC(=O)N1CCC(Nc2cc(C(=O)NC[C@H](O)CN3CCc4sccc4C3)ncn2)CC1 [Compound 1-3, (S)-6-((1-acetylpiperidin-4-yl)amino)-N-(3-(6,7-dihydrothieno[3,2-c]pyridin-5(4H)-yl)-2-hydroxypropyl)pyrimidine-4-carboxamide] | < 0.1 µM
CC(=O)N1CCC(Nc2cc(C(=O)NC[C@H](O)CN3CCc4scnc4C3)ccn2)CC1 [Compound 1-30] | 1 to 10 µM
Nc1nc2c(s1)CN(C[C@@H](O)CNC(=O)c1cc(NC3COC3)ncn1)CC2 [Compound 1-23] | > 10 µM
CC(=O)N1CCC(Nc2cc(C(=O)NC[C@H](O)CN3CCc4sc(C)nc4C3)ccn2)CC1 [Compound 1-33] | 1 to 10 µM
CC(=O)N1CCC(Nc2cc(C(=O)NC[C@H](O)CN3CCc4sc(N)nc4C3)ccn2)CC1 [Compound 1-34] | 0.101 to 1 µM
CC(=O)N1CCC(Nc2cc(C(=O)NC[C@H](O)CN3CCc4nc(N)sc4C3)ncn2)CC1 [Compound 1-38] | 1 to 10 µM
CC(=O)N1CCC(Nc2cc(C(=O)NC[C@H](O)CN3CCc4sc(C)nc4C3)ncn2)CC1 [Compound 1-36] | 1 to 10 µM
Cc1csc2c1CN(C[C@@H](O)CNC(=O)c1cc(NC3COC3)ncn1)CC2 [Compound 1-11, (S)—N-(2-hydroxy-3-(3-methyl-6,7-dihydrothieno[3,2-c]pyridin-5(4H)-yl)propyl)-6-(oxetan-3-ylamino)pyrimidine-4-carboxamide] | 0.101 to 1 µM

Reference: patent US20170210751A1, “PRMT5 INHIBITORS AND USES THEREOF” (Epizyme, Inc., priority 2014, published 2017)
